Experimental data as given in US20100204295A1, “TREATMENT OF ALLERGIC DISEASE WITH IMMUNOMODULATOR COMPOUNDS” (SCICLONE PHARMACEUTICALS, INC., priority 2007, published 2010).
“And” between values parts separate entries of the source, which are not always exact repeats. Equal values may be shown once. “Also recorded” adds a separate entry of the source.

Tests used:
interleukin-4 = assay: ConA-induced IL-4 production by splenocytes after intra-abdominal SCV-07; format: in vivo, mice; details: 1 μg/kg, five daily intra-abdominal injections; ConA 5 μg/mL
Description: (§1) SCV-07 was administered to intact wild mice in the form of five daily intra-abdominal injections at dosages of 0.1 and 1.0 μg/kg of body weight. After this, isolation of spleen cells was carried out the cytokine synthesis was induced in the culture by stimulating the cells with concanavalin A at a dosage of 5 μg/mL. The levels of the synthesized cytokines were determined by quantitative immunoenzyme analysis. […] The changes on ConA-induced production of two other [sic] cytokines—IFN-γ and IL-4, as is apparent from FIG. 1, were reciprocal in nature.

interferon-γ = assay: ConA-induced IFN-γ production by splenocytes after intra-abdominal SCV-07; format: in vivo, mice; details: 1 μg/kg, five daily intra-abdominal injections; ConA 5 μg/mL
Description: as §1

[1] = test system: immediate allergic reaction to OVA aerosol; assay: Immediate response to aerosol, comments recorded during aerosolization, guinea pig model; format: in vivo, Dunkin-Hartley guinea pigs; details: one animal per line, listed as SCV
Description: Female Dunkin-Hartley guinea pigs (200-350 g) were purchased from Charles River, Kingston, New York facility, Barrier […]. Animals were shipped to Duluth, Minn., and held in our animal facility for 5-7 days prior to beginning the experiment. Experimental treatment groups are outlined in Table 7. Animals were sensitized on day 0 ip with 50 mg/kg OVA. On Days 17, 18, 19, and 20, animals received an ip injection between 8 and 10 am with PBS, SCV-07 at 1 ug/kg, or SCV-07 at 10 ug/kg (Peptide treatment). Between 8 and 10 a.m. on Day 21, animals were administered peptide 2 hours before OVA or saline (NSS) aerosol challenge. 30 min before OVA or NSS aerosol challenge each animal was injected ip with an antihistamine (6.1 mg/kg pyrilamine maleate) to prevent death due to the anaphylactic response that accompanies aerosol OVA challenge. Animals were exposed to aerosol in pairs with either 1% OVA solution or NSS for 5 min in a plexiglass chamber (22×22×29 cm) using a DeVilbiss Model 35B Ultrasonic Nebulizer. Animals were observed during the total 5 min aerosolization and comments recorded. Within 22-24 hours after challenge, animals were euthanized, bled by cardiac puncture, lavaged and lung lobes removed for measurement of cellular infiltration. At the time of OVA or NSS challenge and euthanasia, animal weights ranged from approximately 350-550 g, with the average weight approximately 420 g. This experimental protocol is similar to that used in previously published studies (Regal and Fraser, 1996; Regal et al., 2000). The experimenter was not blinded to the treatment. […] In general, animals sensitized and challenged with OVA and antihistamine pre-treated will not die from the allergen challenge, but will experience labored breathing and oftentimes coughing and gasping. All 7 animals in the PBS OVA treatment group had some visible reaction as expected. The remarkable finding was the number of animals in the SCV 1 OVA and SCV 10 OVA treatment groups that had no apparent reaction to the OVA aerosol. […] The obvious speculation is that SCV-07 attenuates the immediate bronchoconstriction to allergen challenge. Follow-up experiments are definitely indicated by this observation.

[2] = test system: RBCs and protein in the BAL; assay: Lung injury / microvascular permeability: RBCs and total protein in BAL, guinea pig model; format: in vivo, Dunkin-Hartley guinea pigs
Description: Animals were sensitized on day 0 ip with 50 mg/kg OVA. On Days 17, 18, 19, and 20, animals received an ip injection between 8 and 10 am with PBS, SCV-07 at 1 ug/kg, or SCV-07 at 10 ug/kg (Peptide treatment). Between 8 and 10 a.m. on Day 21, animals were administered peptide 2 hours before OVA or saline (NSS) aerosol challenge. 30 min before OVA or NSS aerosol challenge each animal was injected ip with an antihistamine (6.1 mg/kg pyrilamine maleate) to prevent death due to the anaphylactic response that accompanies aerosol OVA challenge. Animals were exposed to aerosol in pairs with either 1% OVA solution or NSS for 5 min in a plexiglass chamber (22×22×29 cm) using a DeVilbiss Model 35B Ultrasonic Nebulizer. Animals were observed during the total 5 min aerosolization and comments recorded. Within 22-24 hours after challenge, animals were euthanized, bled by cardiac puncture, lavaged and lung lobes removed for measurement of cellular infiltration. At the time of OVA or NSS challenge and euthanasia, animal weights ranged from approximately 350-550 g, with the average weight approximately 420 g. This experimental protocol is similar to that used in previously published studies (Regal and Fraser, 1996; Regal et al., 2000). […] Total white blood cells in BAL were counted by standard methods in a hemacytometer using Turk's solution. […] Four hundred cells were counted and identified as eosinophils, neutrophils, or mononuclear cells. […] EPO activity from the homogenized lung after lavage was expressed as total OD/min from the left caudal lobe. MPO activity from the homogenized lung after lavage was expressed as total units of enzyme activity from the right caudal lobe. […] OD412 of the BAL supernatant was also determined to estimate the number of RBCS that were lysed during the lavage procedure and prior to re-suspension of the cells for counting. […] Lung injury and/or changes in microvascular permeability were assessed by determining the RBCs in the BAL (FIG. 7A-B) as well as the overall protein content of the BAL fluid (FIG. 7C). […]

[3] = test system: 5-FU-immune-suppressed animals; details: in vivo; cited from earlier work

N[C@H](CCC(=O)N[C@@H](Cc1c[nH]c2ccccc12)C(=O)O)C(=O)O [SCV-07, γ-D-glutamyl-L-tryptophan]
Change in ConA-induced production of IL-4 by the splenocytes (interleukin-4): two-fold reduction
Change in ConA-induced IFN-γ production by the splenocytes (interferon-γ): almost five-fold increase
Comment recorded during aerosolization ([1]; SCV 1 NSS: SCV-07 1 ug/kg ip, NSS aerosol): huddling in corner; also recorded: no rx
Comment recorded during aerosolization ([1]; SCV 1 OVA: SCV-07 1 ug/kg ip, OVA aerosol): slight cough 1x? and 1 cough?
Comment recorded during aerosolization ([1]; SCV 10 NSS: SCV-07 10 ug/kg ip, NSS aerosol): huddling in corner, no rx
Comment recorded during aerosolization ([1]; SCV 10 OVA: SCV-07 10 ug/kg ip, OVA aerosol): no rx (3×) and slight cough and 1 cough? and deeper breathing (2×)
OD412 of the BAL supernatant ([2]; change from NSS to OVA): significantly reduced
Number of RBCs in the BAL (OD412 of lysed cell pellet), change from NSS to OVA ([2]; either 1 or 10 ug/kg): significantly attenuated
Total protein in the BAL fluid ([2]; guinea pig, in vivo): not affected
Effect on 5-FU-immune-suppressed animals [3]: strong immunostimulatory effect
